Publication PMC4871512, “Drug-Based Lead Discovery: The Novel Ablative Antiretroviral Profile of Deferiprone in HIV-1-Infected Cells and in HIV-Infected Treatment-Naive Subjects of a Double-Blind, Placebo-Controlled, Randomized Exploratory Trial” (PLoS ONE, 2016)
Where two headings read alike, the source gives them in different places.

Legend:
[1] = Proof-of-concept trial: entry PK study, deferiprone in serum after the first oral dose; format: in vivo, human; conditions: for Cmax: human, serum
From the text: Eligible for enrollment were volunteers of both genders, between 18 and 60 years old, healthy or HIV-infected with CD4 count ≥ 300/mm^3, viral load of ≥ 10,000 copies/ml, and absence of active infectious disease; AIDS-defining condition; febrile illness; liver or kidney disease; hypersensitivity to test material; and medication requirement. The protocol involved a screening visit; a pharmacokinetic and antiretroviral study requiring admission to a specialized Phase I research unit for a week of on-drug treatment, with multiple blood draws from a peripheral vein after oral intake of the first deferiprone dose, […], and at least three repeat blood draws (first stage of protocol); an off-drug observation period of eight weeks, which comprised at least two repeat visits (second stage of protocol); and an exit visit. Enrollment complied with the applicable standard-of-care specified in the ‘Clinical Guidelines for the Management of HIV & AIDS in Adults and Adolescents’, National Department of Health, Republic of South Africa. Primary parameters included safety and tolerability (e.g. vital signs, laboratory variables, cardiac monitoring by ECG) and antiretroviral activity (e.g. RNA copies of HIV-1). Secondary parameters included pharmacokinetic variables (e.g. peak serum concentration) in serum, drawn from a peripheral vein at fixed times (0, 0.5, 1, 1.5, 2, 3, 4, 6, 9, 12) after the ingestion of the first dose on Day 1 of the study. The concentration of the nonconjugated, chelation-competent form of deferiprone in serum was determined by UV detection at 280 nm, after separation via reversed-phase HPLC under isocratic conditions. The lower limit of deferiprone quantitation was 1.466 μM, or 0.204 μg/ml. HIV-1 RNA was measured as described and used as log10-transformed parameter in all calculations.

[2] = Proof-of-concept trial: safety and tolerability
Procedure: Since we were dosing a population with previously untested tolerance for deferiprone, the exploratory trial of this orally administered drug was conducted under uninterrupted medical observation and standardized conditions, e.g. uniform diet to minimize confounding food effects, in a specialized in-patient research unit for Phase I protocols. In-unit supervision lasted for the entire one-week duration of deferiprone ingestion (first stage of protocol S1 in Fig 6), which was intentionally restricted to the oral intake of in total just 17 doses. After discharge from the research unit, outpatient follow-up occurred at 4 weeks and 8 weeks (second stage of protocol S2 in Fig 6). […] Using drug toxicity grading criteria proposed by NIH [97, 98], we defined the following tolerability profile:
Eligible for enrollment were volunteers of both genders, between 18 and 60 years old, healthy or HIV-infected with CD4 count ≥ 300/mm^3, viral load of ≥ 10,000 copies/ml, and absence of active infectious disease; AIDS-defining condition; febrile illness; liver or kidney disease; hypersensitivity to test material; and medication requirement. The protocol involved a screening visit; a pharmacokinetic and antiretroviral study requiring admission to a specialized Phase I research unit for a week of on-drug treatment, with multiple blood draws from a peripheral vein after oral intake of the first deferiprone dose, either 33 mg/kg or 50 mg/kg, and at least three repeat blood draws (first stage of protocol); an off-drug observation period of eight weeks, which comprised at least two repeat visits (second stage of protocol); and an exit visit. Enrollment complied with the applicable standard-of-care specified in the ‘Clinical Guidelines for the Management of HIV & AIDS in Adults and Adolescents’, National Department of Health, Republic of South Africa. Primary parameters included safety and tolerability (e.g. vital signs, laboratory variables, cardiac monitoring by ECG) and antiretroviral activity (e.g. RNA copies of HIV-1). Secondary parameters included pharmacokinetic variables (e.g. peak serum concentration) in serum, drawn from a peripheral vein at fixed times (0, 0.5, 1, 1.5, 2, 3, 4, 6, 9, 12) after the ingestion of the first dose on Day 1 of the study. The concentration of the nonconjugated, chelation-competent form of deferiprone in serum was determined by UV detection at 280 nm, after separation via reversed-phase HPLC under isocratic conditions. The lower limit of deferiprone quantitation was 1.466 μM, or 0.204 μg/ml. HIV-1 RNA was measured as described and used as log10-transformed parameter in all calculations.
26 consecutive subjects were randomly enrolled in the IRB-approved proof-of-concept trial and gave written informed consent to be studied (Supporting Information, S2 Text); recruitment of trial subjects commenced in November 2006 and follow-up terminated in April 2008. Double-blind enrollment comprised i) 18 HIV-infected, asymptomatic and—according to the applicable standard-of-care [74]–cART-ineligible individuals, who either received placebo (N = 4 [Protocol Group 4]) or deferiprone (Ferriprox®) administered orally every 8 hours in three equal doses under medical supervision, totaling initially either 99 mg/kg/day (N = 7 [Protocol Group 1]) or subsequently 150 mg/kg/day (N = 7 [Protocol Group 3]); and ii) 8 uninfected individuals either on placebo (N = 2 [Protocol Group 5]) or daily deferiprone (N = 6; 150 mg/kg/day [Protocol Group 2]); CD4 cells were quantified before, during, and at the end of the one-week treatment period. […] Visually identical tablets of deferiprone / placebo were administered once on Days 1 and 7, and thrice on Days 2–6 of protocol.

[3] = tested on: HIV-infected cell lines and HIV-infected primary cells; conditions: cited from earlier work
[4] = cited from earlier work
[5] = human, in vivo; cited from earlier work

For `Cc1c(O)c(=O)ccn1C` [deferiprone, 3-hydroxy-1,2-dimethylpyridin-4-one], the “subjects with serum cmax concentrations above the threshold (150 μM)” value ([1]; 99 mg group) was 4 of 7, the “subjects with serum cmax concentrations above the threshold (150 μM)” value ([1]; 150 mg group) was 3 of 4 and the Cmax ([1]; both sexes, oral, approximation from pharmacokinetic, viral load and tolerability findings, read-out: serum cmax an effective and tolerable regimen may have to achieve) was 150 to 275 µM. The Cmax ([1]; both sexes, po, 33 mg/kg, 99 mg group, first oral dose 33 mg/kg, read-out: cmax, range within group) was 53 to 314 µM, the Cmax ([1]; both sexes, po, 50 mg/kg, 150 mg group, first oral dose 50 mg/kg, read-out: cmax, range within group) was 128 to 285 µM and the Cmax ([1]; oral, 99 mg, Subject 2, 99 mg group, read-out: cmax) was 314 µM. The Cmax ([1]; oral, 150 mg, Subject 19, 150 mg group, read-out: cmax) was 128 µM, the Cmax ([1]; oral, 150 mg, Subject 22, 150 mg group, read-out: cmax) was 285 µM and the “enrollees who completed the study” value ([2]; 99 mg group) was 86%. For the same compound, the “persons with elevations of transaminases and γ-glutamyl transpeptidase” value ([2]; 99 mg group, N = 7 HIV-infected, end of the treatment week) was 2, the “grade of transaminase elevations” value ([2]; 99 mg group, the 2 affected persons) was “Grade 3 and Grade 2” and the “grade of γ-glutamyl transpeptidase elevations” value ([2]; 99 mg group, the 2 affected persons, respectively) was “Grade 1 and Grade 2”. The “enrollees who completed the study” value ([2]; 150 mg group overall, N = 13) was 61%, the “persons with a rise in serum liver enzymes” value ([2]; 150 mg group, HIV-uninfected) was 2 of 6 and the hematologic adverse event ([2]; 150 mg group, Subject 22 (cmax 285 μM), medication discontinued on Day 3) was “agranulocytosis (Grade 4 absolute neutrophil count)”. The “grade of γ-glutamyl transpeptidase elevation” value ([2]; 150 mg group, Subject 22 and Subject 24) was “Grade 2”, the “persons with a rise in serum liver enzymes” value ([2]; 150 mg group, asymptomatic HIV-infected) was 4 of 7 and the “grade of transaminase elevations” value ([2]; 150 mg group, the four affected HIV-infected persons) was “three Grade 2 and one Grade 4”. The protocol completion ([2]; 150 mg group, those with HIV infection) was 57%, the “rise in serum liver enzymes, grade” value ([2]; HIV-uninfected persons on 150 mg/day, Subject 9 and Subject 12) was “Grade 1 transaminase elevation” and the “spontaneous correction of the neutrophil count” value ([2]; Subject 22) was “within two weeks off-drug”. The “spontaneous correction of the liver function abnormality” value ([2]; Subject 22 and Subject 24) was “within one week off-drug”, the “heart rate-corrected QT interval on-drug” value ([2]; Subject 317, 150 mg group, Grade 2 QTc prolongation) was 491 ms and the “increase of heart rate-corrected QT interval” value ([2]; Subject 317, 150 mg group, baseline 441 ms, first stage, judged likely not causally linked) was 50 ms. For the same compound, the “off-drug rate-corrected QT interval” value ([2]; Subject 317, several days after the end of drug intake) was “up to 488 ms”, the “effect of dose increase on tolerability” value ([2]; in vivo) was “markedly reduced the tolerability” and the neurological adverse event ([2]; one HIV-uninfected person, at 6 and 8 days after the end of deferiprone treatment) was “convulsive episodes”. The “HIV-1 inhibition in chronically infected cell lines” value ([3]; 200 μM deferiprone) was “near-maximal HIV-1 inhibition”, the “ribosomal presence of gag mRNA, amount of intra- and extracellular p24, budding of viral particles” value ([3]; treated HIV-infected cells) was “suppress” and the “half-life in peripheral blood” value ([4]; human) was “approximately 2 hour”. The peak serum level ([4]; in vivo, 65.2 mg/kg) was “up to 450 µM”, the “difference in peak serum concentration (cmax) between UGT1A6-typed subjects” value ([4]; in vivo, po) was “up to 35%” and the “difference in total drug exposure over time (AUC0 - ∞) between UGT1A6-typed subjects” value ([4]; in vivo, po) was 38%. The “Abdominal pain/discomfort, patients affected” value [5] was 10.4%, the “Alanine aminotransferase increased, patients affected” value [5] was 7.5% and the “Arthralgia, patients affected” value [5] was 9.8%. The “Headache, patients affected” value [5] was 2.5%, the “Nausea, patients affected” value [5] was 12.6% and the “Neutropenia (neutrophils < 1.5 x 10^9/L and > 0.5 x 10^9/L), patients affected” value [5] was 6.2%. For the same compound, the “Vomiting, patients affected” value [5] was 9.8% and the “agranulocytosis (absolute neutrophil count less than 0.5 × 10^9/L), patients affected” value [5] was 1.7%.
